Test results reported in the NIST ThermoML archive (doi:10.1016/j.jct.2012.09.009).

Settings: 101.33 kPa, Liquid; for speed of sound: Sing-around technique in a fixed-path interferometer; for mass density: vibrating tube

CC(C)CC(C)(C)C [2,2,4-trimethylpentane]
Settings	mass density [kg/m3]	speed of sound [m/s]
278.15 K	704.1	1168.4
283.15 K	700.05	1146.8
288.15 K	695.98	1125.4
293.15 K	691.89	1104.3
298.15 K	687.77	1083.1
303.15 K	683.64	1062.4
308.15 K	679.48	1041.6
313.15 K	675.28	1020.9
318.15 K	671.07	1000.5
323.15 K	666.81	980
328.15 K	662.52	959.7
333.15 K	658.19	939.7
338.15 K	653.81	919.7
343.15 K	649.4	900

Cc1ccccc1 [toluene]
Settings	speed of sound [m/s]
278.15 K	1394.1
283.15 K	1371.5
288.15 K	1349.1
293.15 K	1326.9
298.15 K	1305.1
303.15 K	1283.6
308.15 K	1262.2
313.15 K	1240.9
318.15 K	1219.9
323.15 K	1198.9
328.15 K	1178.2
333.15 K	1157.7
338.15 K	1137.2
343.15 K	1117
